Among the data in PubChem BioAssay (NCI) are GI50 and TGI values, retold here.

Molecules are shown by their SMILES.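 Five compound concentrations were applied to cells in 96-well plates for 48 hours; endpoints were derived by simple linear interpolation of the resulting dose-response curve. At the GI50, growth is halved. TGI denotes the concentration required for complete inhibition of growth.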 A value given as a limit tells only on which side of the number the result lay.

Test systems include LOX IMVI melanoma; TK-10 renal; M14 melanoma; HCC-2998 colon; SK-MEL-2 melanoma; RPMI-8226 leukemia; OVCAR-4 ovarian; HL-60(TB) leukemia; CCRF-CEM leukemia; MALME-3M melanoma.
Common to all, as to assay: growth of human tumour cells (NCI), 48 h

For `O=C(Nc1cccc(O)c1)c1cccc(NC2=C(Cl)C(=O)N(Cc3ccccc3)C2=O)c1`, the GI50 in the experiment with LOX IMVI melanoma is 11.1 µM; in the experiment on TK-10 renal it was 15 µM; in the experiment with M14 melanoma, 20.5 µM; with HCC-2998 colon, 15.8 µM; in the experiment with SK-MEL-2 melanoma, 4.63 µM; with RPMI-8226 leukemia, 1.49 µM. Besides, the GI50 in the experiment with OVCAR-4 ovarian is 19.2 µM; in the experiment with HL-60(TB) leukemia, 4.88 µM; in the experiment on CCRF-CEM leukemia, 0.513 µM. In addition, the TGI in the experiment with LOX IMVI melanoma came out at 23.1 µM; with TK-10 renal it was 29.8 µM; with M14 melanoma, 40 µM; in the experiment on HCC-2998 colon, 29.4 µM; in the experiment on SK-MEL-2 melanoma it was 19.3 µM; in the experiment with RPMI-8226 leukemia it was 27 µM. The figures for the TGI in the experiment on OVCAR-4 ovarian, in the experiment with HL-60(TB) leukemia and with CCRF-CEM leukemia were 47.9 µM, 27.9 µM and > 100 µM, respectively.

On to `C#C[C@H](CCCC)OC(=O)N[C@H](C)c1ccccc1`, for which the TGI is 87.8 µM in the experiment with LOX IMVI melanoma; > 100 µM with TK-10 renal; > 100 µM in the experiment with M14 melanoma; 68.4 µM with SK-MEL-2 melanoma; 69.4 µM in the experiment with RPMI-8226 leukemia; > 100 µM with OVCAR-4 ovarian. Further, the TGI with HL-60(TB) leukemia was 40.7 µM; in the experiment with CCRF-CEM leukemia, > 100 µM.

With `O=S(=O)(O)/C(=C\c1ccccc1)c1ccccc1` (tested in a mixture with another compound), the TGI with MALME-3M melanoma, with LOX IMVI melanoma, in the experiment on TK-10 renal, with M14 melanoma, in the experiment on SK-MEL-2 melanoma and in the experiment on RPMI-8226 leukemia was > 100 µM in each case. In addition, the TGI with OVCAR-4 ovarian, in the experiment with HL-60(TB) leukemia and in the experiment on CCRF-CEM leukemia was > 100 µM throughout.

Turning to `Cc1ccc(NC(=O)C2C(=O)N(c3ccc(C)c(C)c3)C(=O)/C2=N\NC(N)=S)cc1C` (stereo not drawn), the TGI in the experiment with MALME-3M melanoma, in the experiment with LOX IMVI melanoma, in the experiment with TK-10 renal, with M14 melanoma, in the experiment with SK-MEL-2 melanoma and with RPMI-8226 leukemia was > 100 µM throughout. Moreover, the TGI in the experiment with HL-60(TB) leukemia and in the experiment with CCRF-CEM leukemia was > 100 µM in each case.

In the case of `O=[N+]([O-])c1ccc(/C=C(/c2ccc([N+](=O)[O-])o2)S(=O)(=O)c2ccccc2)o1`, the TGI in the experiment on MALME-3M melanoma was 7.45 µM; in the experiment on TK-10 renal, 15.2 µM; in the experiment on M14 melanoma, 25.5 µM; with SK-MEL-2 melanoma, 35.8 µM; with RPMI-8226 leukemia, 0.483 µM; in the experiment on OVCAR-4 ovarian it was 15.5 µM. In addition, in the experiment on HL-60(TB) leukemia, the TGI stood at 8.67 µM.

With `C=CCC(N[C@H](CO)c1ccccc1)c1cn(S(=O)(=O)c2ccc(C)cc2)c2ccccc12` (stereo partly drawn), the GI50 in the experiment on LOX IMVI melanoma was 13.7 µM; in the experiment with TK-10 renal it was 3.62 µM; in the experiment with M14 melanoma it was 14.5 µM; in the experiment with HCC-2998 colon, 15.8 µM; in the experiment with SK-MEL-2 melanoma, 32.2 µM; with RPMI-8226 leukemia it was 6.85 µM. The GI50 with OVCAR-4 ovarian was 73.7 µM; with CCRF-CEM leukemia it was 22.6 µM. For the same molecule, the TGI was 27 µM with LOX IMVI melanoma; 18 µM in the experiment with TK-10 renal; 31.5 µM with M14 melanoma; 33.4 µM in the experiment on HCC-2998 colon; > 100 µM with SK-MEL-2 melanoma; 46.2 µM in the experiment on RPMI-8226 leukemia. In addition, the TGI with OVCAR-4 ovarian is > 100 µM; in the experiment on CCRF-CEM leukemia, 76.7 µM.

`O=C(O)c1cc(Cc2ccc(O)c(C(=O)O)c2)ccc1O` (tested in a mixture with another compound): the GI50 is 8.55 µM in the experiment on MALME-3M melanoma; 2.99 µM with LOX IMVI melanoma; 6.17 µM with TK-10 renal; 5.28 µM with M14 melanoma; 1.9 µM in the experiment on HCC-2998 colon; 2.62 µM in the experiment on RPMI-8226 leukemia. Further, the GI50 is 6.08 µM in the experiment on OVCAR-4 ovarian and 2.25 µM in the experiment with CCRF-CEM leukemia. Moreover, the TGI in the experiment on MALME-3M melanoma was 23.9 µM; in the experiment on LOX IMVI melanoma, 15.7 µM; with TK-10 renal, 20.7 µM; in the experiment with M14 melanoma it was 21.8 µM; in the experiment with HCC-2998 colon it was 3.73 µM; in the experiment on RPMI-8226 leukemia, > 100 µM. In addition, the TGI with OVCAR-4 ovarian was 29.2 µM; with CCRF-CEM leukemia it was > 100 µM.

Regarding `c1cc(-c2cn[nH]c2)cc(-c2cn[nH]c2)c1`, the TGI with LOX IMVI melanoma, in the experiment with TK-10 renal, in the experiment with M14 melanoma, with HCC-2998 colon, in the experiment with SK-MEL-2 melanoma and in the experiment with RPMI-8226 leukemia was > 100 µM each time. In addition, the TGI with OVCAR-4 ovarian was > 100 µM; in the experiment with HL-60(TB) leukemia, 66.6 µM; in the experiment on CCRF-CEM leukemia, > 100 µM.

Consider `CC(O)(CNS(=O)(=O)c1ccccc1)c1ccccc1` (stereo not drawn), for which the TGI in the experiment with MALME-3M melanoma, with LOX IMVI melanoma, in the experiment on TK-10 renal, in the experiment on M14 melanoma, with SK-MEL-2 melanoma and with RPMI-8226 leukemia was > 100 µM in each case. Besides, the TGI in the experiment on OVCAR-4 ovarian, with HL-60(TB) leukemia and with CCRF-CEM leukemia was > 100 µM each time.

On to `CC1SC(c2c(Cl)cccc2Cl)N(NC(=O)C(O)c2ccccc2)C1=O` (stereo not drawn), for which the GI50 in the experiment on LOX IMVI melanoma was 60.7 µM; in the experiment with TK-10 renal it was > 100 µM; in the experiment on M14 melanoma, 87 µM; with HCC-2998 colon, > 100 µM; in the experiment on SK-MEL-2 melanoma it was > 100 µM; with RPMI-8226 leukemia it was 35.8 µM. Besides, the GI50 is > 100 µM in the experiment with OVCAR-4 ovarian, 94 µM with HL-60(TB) leukemia and 74.6 µM with CCRF-CEM leukemia. Besides, the TGI with LOX IMVI melanoma, with TK-10 renal, in the experiment on M14 melanoma, in the experiment on HCC-2998 colon, with SK-MEL-2 melanoma and in the experiment on RPMI-8226 leukemia was > 100 µM each time. Further, the TGI in the experiment with OVCAR-4 ovarian, with HL-60(TB) leukemia and with CCRF-CEM leukemia was > 100 µM in each case.

In the case of `COc1cc(NCC2COc3c(ccc(OC)c3OC)C2=O)c([N+](=O)[O-])cc1OC` (stereo not drawn), the TGI in the experiment on LOX IMVI melanoma, with TK-10 renal, in the experiment on M14 melanoma, in the experiment with SK-MEL-2 melanoma, in the experiment on RPMI-8226 leukemia and in the experiment with OVCAR-4 ovarian was > 100 µM each time. For the same molecule, the TGI in the experiment with HL-60(TB) leukemia and in the experiment on CCRF-CEM leukemia was > 100 µM throughout.

For `COc1ccc(C(=O)C(C(=O)C(=O)Nc2nccs2)c2ccc(OC)cc2)cc1` (stereo not drawn), the TGI in the experiment with MALME-3M melanoma, in the experiment with LOX IMVI melanoma, with TK-10 renal, in the experiment on M14 melanoma, with SK-MEL-2 melanoma and in the experiment on RPMI-8226 leukemia was > 100 µM each time. In the experiment on CCRF-CEM leukemia, the TGI was > 100 µM.
